Values quoted from earlier work, collected in patent publication US20030235609A1, “Use of cholinesterase antagonists to treat insulin resistance” (priority 2002, published 2003).

Tested on: muscarinic receptor
Details: cats

| Compound | Dose required to produce a full insulin resistance (administered into the portal vein) | Dose achieving a similar degree of insulin resistance |
| --- | --- | --- |
| COc1ccccc1CNCCCCCCNCCCCCCCCNCCCCCCNCc1ccccc1OC [methoctramine] | 10^−6 μmol/kg |  |
| CN1CCN(CC(=O)N2c3ccccc3C(=O)Nc3cccnc32)CC1 [pirenzepine] |  | 10^7 mmol/kg |
